# Values of other authors as cited in patent publication EP3854219A1, “EDIBLE AND WATER-SOLUBLE CHEWABLE TOY FOR ANIMALS, IN PARTICULAR FOR THE RELEASE OF ACTIVE INGREDIENTS” (New Project S.r.l., priority 2020, dated 2021).
# Tested on: rats
# Details: oral ingestion
smiles,measurement,value
CO [methanol],LD50,5628 mg/kg
